Assay results from patent publication US5292733A, “Cephalosporin compounds” (Lucky Limited, priority 1991, dated 1994).
Converted amounts (≈) assume the structure as drawn. Like-named read-outs stand apart in the source and are kept apart here.

Tests used:
Test in all cases: Antibacterial activity MIC, two-fold agar dilution
Format in all cases: cell-based
[1] = test system: Acinetobacter calcoaceticus ATCC 15473; details: read-out: Antibacterial Activity MIC
Method in brief: (§1)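 Compounds were serially diluted two-fold in Muller-Hinton agar, and each plate was spot-inoculated with 2 μl of test strain suspension at 10^7 CFU per ml. Plates were incubated at 37° C. for 20 hours before the MIC was recorded.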

[2] = test system: Bacillus cereus ATCC 11778; details: read-out: Antibacterial Activity MIC
Method in brief: as §1

[3] = test system: Bacillus megaterium ATCC 9885; details: Priestia megaterium, read-out: Antibacterial Activity MIC
Method in brief: as §1

[4] = test system: Citrobacter freundii ATCC 8090; details: read-out: Antibacterial Activity MIC
Method in brief: as §1

[5] = test system: Enterobacter aerogenes ATCC 29751; details: Klebsiella aerogenes, read-out: Antibacterial Activity MIC
Method in brief: as §1

[6] = test system: Enterobacter cloacae ATCC 27508; details: read-out: Antibacterial Activity MIC
Method in brief: as §1

[7] = test system: Escherichia coli ATCC 10536; details: ATCC10536, Muller-Hinton agar, 37° C., 20 hours
Method in brief: as §1

[8] = test system: Escherichia coli ATCC 25922; details: ATCC25922, Muller-Hinton agar, 37° C., 20 hours
Method in brief: as §1

[9] = test system: Klebsiella pneumoniae ATCC 10031; details: read-out: Antibacterial Activity MIC
Method in brief: as §1

[10] = test system: Micrococcus luteus ATCC 9341; details: read-out: Antibacterial Activity MIC
Method in brief: as §1

[11] = test system: Morganella morganii ATCC 8076h; details: ATCC8076H, Muller-Hinton agar, 37° C., 20 hours
Method in brief: as §1

[12] = test system: Proteus mirabilis ATCC 25933; details: read-out: Antibacterial Activity MIC
Method in brief: as §1

[13] = test system: Proteus vulgaris ATCC 6059; details: read-out: Antibacterial Activity MIC
Method in brief: as §1

[14] = test system: Providencia rettgeri ATCC 9250; details: ATCC9250, Muller-Hinton agar, 37° C., 20 hours
Method in brief: as §1

[15] = test system: Pseudomonas aeruginosa ATCC 10145; details: read-out: Antibacterial Activity MIC
Method in brief: as §1

[16] = test system: Pseudomonas aeruginosa ATCC 25619; details: read-out: Antibacterial Activity MIC
Method in brief: as §1

[17] = test system: Pseudomonas aeruginosa ATCC 27853; details: read-out: Antibacterial Activity MIC
Method in brief: as §1

[18] = test system: Salmonella typhimurium ATCC 14028; details: Salmonella enterica, read-out: Antibacterial Activity MIC
Method in brief: as §1

[19] = test system: Serratia marcescens ATCC 27117; details: read-out: Antibacterial Activity MIC
Method in brief: as §1

[20] = test system: Shigella flexneri ATCC 11836; details: ATCC11836, Muller-Hinton agar, 37° C., 20 hours
Method in brief: as §1

[21] = test system: Shigella sonnei ATCC 11060; details: ATCC11060, Muller-Hinton agar, 37° C., 20 hours
Method in brief: as §1

[22] = test system: Staphylococcus aureus ATCC 10537; details: read-out: Antibacterial Activity MIC
Method in brief: as §1

[23] = test system: Staphylococcus aureus ATCC 6538p; details: ATCC6538P, read-out: Antibacterial Activity MIC
Method in brief: as §1

[24] = test system: Staphylococcus epidermidis ATCC 12228; details: read-out: Antibacterial Activity MIC
Method in brief: as §1

[25] = test system: Streptococcus faecalis ATCC 29212; details: Enterococcus faecalis, read-out: Antibacterial Activity MIC
Method in brief: as §1

`CC[n+]1c(N)cc(SCC2=C(C(=O)[O-])N3C(=O)[C@@H](NC(=O)/C(=N\OC(C)(C)C(=O)O)c4csc(N)n4)[C@H]3SC2)nc1N` [Compound I-13, (6R,7R)-7-[(Z)-2-(2-aminothiazol-4-yl)-2-(carboxyprop-2-oxyimino)acetamido]-3-(2,6-diamino-1-ethylpyrimidinium-4-yl)thiomethyl-3-cephem-4-carboxylate] showed an MIC ([1]; ATCC15473, Acinetobacter calcoaceticus ATCC 15473, Muller-Hinton agar, 37° C., 20 hours) of 8 µg/mL (≈ 12.5 µM), an MIC ([2]; ATCC11778, Bacillus cereus ATCC 11778, Muller-Hinton agar, 37° C., 20 hours) of 128 µg/mL (≈ 201 µM) and an MIC ([3]; ATCC9885, Bacillus megaterium ATCC 9885, Muller-Hinton agar, 37° C., 20 hours) of 0.25 µg/mL (≈ 0.392 µM). It also gave an MIC ([4]; ATCC8090, Citrobacter freundii ATCC 8090, Muller-Hinton agar, 37° C., 20 hours) of 0.13 µg/mL (≈ 0.204 µM), an MIC ([5]; ATCC29751, Enterobacter aerogenes ATCC 29751, Muller-Hinton agar, 37° C., 20 hours) of 2 µg/mL (≈ 3.14 µM) and an MIC ([6]; ATCC27508, Enterobacter cloacae ATCC 27508, Muller-Hinton agar, 37° C., 20 hours) of 0.031 µg/mL (≈ 0.0486 µM). The MIC [7] was 0.13 µg/mL (≈ 0.204 µM), the MIC [8] was 0.13 µg/mL (≈ 0.204 µM) and the MIC ([9]; ATCC10031, Klebsiella pneumoniae ATCC 10031, Muller-Hinton agar, 37° C., 20 hours) was 0.063 µg/mL (≈ 0.0988 µM). It also gave an MIC ([10]; ATCC9341, Micrococcus luteus ATCC 9341, Muller-Hinton agar, 37° C., 20 hours) of 0.5 µg/mL (≈ 0.784 µM), an MIC [11] of no more than 0.008 µg/mL and an MIC ([12]; ATCC25933, Proteus mirabilis ATCC 25933, Muller-Hinton agar, 37° C., 20 hours) of 0.13 µg/mL (≈ 0.204 µM). It also gave an MIC ([13]; ATCC6059, Proteus vulgaris ATCC 6059, Muller-Hinton agar, 37° C., 20 hours) of 0.25 µg/mL (≈ 0.392 µM), an MIC [14] of no more than 0.008 µg/mL and an MIC ([15]; ATCC10145, Pseudomonas aeruginosa ATCC 10145, Muller-Hinton agar, 37° C., 20 hours) of 2 µg/mL (≈ 3.14 µM). It also gave an MIC ([16]; ATCC25619, Pseudomonas aeruginosa ATCC 25619, Muller-Hinton agar, 37° C., 20 hours) of 1 µg/mL (≈ 1.57 µM), an MIC ([17]; ATCC27853, Pseudomonas aeruginosa ATCC 27853, Muller-Hinton agar, 37° C., 20 hours) of 1 µg/mL (≈ 1.57 µM) and an MIC ([18]; Salmonella typhimurium ATCC 14028, Muller-Hinton agar, 37° C., 20 hours) of 0.25 µg/mL (≈ 0.392 µM). It also gave an MIC ([19]; ATCC27117, Serratia marcescens ATCC 27117, Muller-Hinton agar, 37° C., 20 hours) of 0.5 µg/mL (≈ 0.784 µM), an MIC [20] of 0.063 µg/mL (≈ 0.0988 µM) and an MIC [21] of 0.25 µg/mL (≈ 0.392 µM). It also gave an MIC ([22]; ATCC10537, Staphylococcus aureus ATCC 10537, Muller-Hinton agar, 37° C., 20 hours) of 4 µg/mL (≈ 6.27 µM), an MIC ([23]; Staphylococcus aureus ATCC 6538p, Muller-Hinton agar, 37° C., 20 hours) of 8 µg/mL (≈ 12.5 µM) and an MIC ([24]; ATCC12228, Staphylococcus epidermidis ATCC 12228, Muller-Hinton agar, 37° C., 20 hours) of 2 µg/mL (≈ 3.14 µM). It also gave an MIC ([25]; ATCC29212, Streptococcus faecalis ATCC 29212, Muller-Hinton agar, 37° C., 20 hours) greater than 128 µg/mL.

Work on `CC(C)(O/N=C(\C(=O)N[C@@H]1C(=O)N2C(C(=O)[O-])=C(C[n+]3ccccc3)CS[C@H]12)c1csc(N)n1)C(=O)O` [Ceftazidime, reference compound] yielded an MIC ([1]; Acinetobacter calcoaceticus, ATCC15473, 20 h) of 4 µg/mL (≈ 7.32 µM), an MIC ([2]; Bacillus cereus, ATCC11778, 20 h) of 128 µg/mL (≈ 234 µM) and an MIC ([3]; ATCC9885, 20 h) of 0.25 µg/mL (≈ 0.457 µM). For the same molecule, the MIC ([4]; Citrobacter freundii, ATCC8090, 20 h) was 1 µg/mL (≈ 1.83 µM), the MIC ([5]; ATCC29751, 20 h) was 4 µg/mL (≈ 7.32 µM) and the MIC ([6]; Enterobacter cloacae, ATCC27508, 20 h) was 0.063 µg/mL (≈ 0.115 µM). It also gave an MIC [7] of 0.13 µg/mL (≈ 0.238 µM), an MIC [8] of 0.13 µg/mL (≈ 0.238 µM) and an MIC ([9]; Klebsiella pneumoniae, ATCC10031, 20 h) of 0.13 µg/mL (≈ 0.238 µM). For the same molecule, the MIC ([10]; Micrococcus luteus, ATCC9341, 20 h) was 1 µg/mL (≈ 1.83 µM), the MIC [11] was 0.016 µg/mL (≈ 0.0293 µM) and the MIC ([12]; Proteus mirabilis, ATCC25933, 20 h) was 0.063 µg/mL (≈ 0.115 µM). It also gave an MIC ([13]; Proteus vulgaris, ATCC6059, 20 h) of 0.063 µg/mL (≈ 0.115 µM), an MIC [14] of no more than 0.008 µg/mL and an MIC ([15]; Pseudomonas aeruginosa, ATCC10145, 20 h) of 2 µg/mL (≈ 3.66 µM). The MIC ([16]; Pseudomonas aeruginosa, ATCC25619, 20 h) was 1 µg/mL (≈ 1.83 µM), the MIC ([17]; Pseudomonas aeruginosa, ATCC27853, 20 h) was 1 µg/mL (≈ 1.83 µM) and the MIC ([18]; 20 h) was 0.25 µg/mL (≈ 0.457 µM). It also gave an MIC ([19]; Serratia marcescens, ATCC27117, 20 h) of 0.13 µg/mL (≈ 0.238 µM), an MIC [20] of 0.063 µg/mL (≈ 0.115 µM) and an MIC [21] of 0.063 µg/mL (≈ 0.115 µM). For the same molecule, the MIC ([22]; Staphylococcus aureus, ATCC10537, 20 h) was 8 µg/mL (≈ 14.6 µM), the MIC ([23]; Staphylococcus aureus, 20 h) was 16 µg/mL (≈ 29.3 µM) and the MIC ([24]; Staphylococcus epidermidis, ATCC12228, 20 h) was 8 µg/mL (≈ 14.6 µM). For the same molecule, the MIC ([25]; ATCC29212, 20 h) was greater than 128 µg/mL.
